The record followed here is patent US8008492B2, “Compounds that act as a vehicle for delivery through the blood-brain barrier and charge delivery vehicle constructions” (priority 2006, dated 2011).

The nature of data set [1]: Parallel artificial membrane permeability assay (PAMPA). The following applies: 200 μM initial, pH 7.4, 4 hours, room temperature; for Effective permeability Pe: triplicate. Format: in vitro ADME, porcine. An excerpt: Parallel artificial membrane permeability assay (PAM PA). The evaluation method chosen is the Parallel Artificial Membrane Permeability Assay (PAMPA), which allows to predict or evaluate only this transport mechanism. In general terms, this method is simple, automatizable with high throughput, has a low cost and require only a small amount of test compound. The PAMPA method originally introduced by Kansy at Roche uses an artificial membrane in the form of filter supported phospholipids bilayers ([…] al., “Physicochemical high throughput screening: Parallel artificial membrane permeability assay in the description of the absorption processes” J. Med. Chem. 1998, vol. 41, pp. 1007-1010). The phospholipid membrane mimics the cell membrane, but has no means for active or paracellular transport of drug molecules. It is a very convenient tool to evaluate the transport of compounds by passive diffusion. This technique allows the evaluation of pure compounds, crudes or even mixtures of compounds. PAMPA assay is used to determine the ability of the BBB shuttle-cargo constructs to cross the BBB by passive diffusion. […] The compound of interest was dissolved to the desired concentration (200 μM). The PAMPA sandwich was separated and the donor well was filled with 200 μL of the compound solution to be studied. The acceptor plate was placed into the donor plate making sure that the underside of membrane was in contact with buffer. 4 μL of mixture of phospholipids (20 mg/mL) in dodecane were added into each well and 200 μL of buffer solution were added to the each acceptor well. The plate was covered and incubated at room temperature in a saturated humidity atmosphere for 4 hours under orbital agitation at 100 rpm. […] The transport was also confirmed by MALDI-TOF spectrometry and HPLC-MS of aliquotes of the acceptor wells. The mixture of phospholipids used is a porcine polar brain lipid extract. […] The effective permeability was calculated using the following equation: [formula] where: • t time (hours) • CA(t) Compound concentration at the acceptor well at time t • CD(t0) Compound concentration at the donor well at 0 h As a control, the transport of propranolol was evaluated in parallel and a mass balance was calculated for all the studied compounds in order to detect if retention in the phospholipids occur. The different compounds were evaluated by PAMPA assay.
For orientation: PAMPA measures passive passage across an artificial lipid membrane.

The nature of data set [2]: Immobilized artificial membrane chromatography (IAMC). The conditions noted are these: isocratic, phosphate buffer pH 7.4 and 20% MeCN. Format: physicochemical. An excerpt:
To evaluate the BBB-shuttles and BBB-shuttle-cargo constructs, a chromatographic technique, IAMC (immobilized artificial membrane chromatography) developed by Pidgeon was used (cf. A. Albert, Chemical aspects of selective toxicity. Nature 1958, vol. 182, pp. 421-423). This technique uses phospholipid molecules covalently immobilized to silica particles at high density as the stationary phase. It has been used to purify membrane proteins, to immobilize enzymes and to predict transport across biological barriers. […] IAMC interactions include ionic, lipophilic and hydrogen bonding interactions that can be combined under a parameter known as phospholipophilicity. […] The compounds were detected by UV absorption at 220 nm. […] The retention times (tr) were transformed into capacity factors (kIAM) according to the following equation: kIAM=(tr−t0)/t0, where tr is the retention time of the studied compound and t0 is the retention time of a compound that would not be retained by the column (e.g. citric acid). As a control, propranolol was studied. BBB-shuttles and the BBB-shuttle-cargo constructs were also evaluated by IAMC (Immobilized Artificial Membrane Chromatography), a chromatographic technique that measures the phospholipophilicity of our compounds, their tendency to interact with phosphatidylcholine covalently immobilized. See results in Table 6 and 7.

Some results are limits rather than exact numbers.

Take `CN1C(=O)C(Cc2ccc(NCC(=O)NCCc3ccc(O)c(O)c3)cc2)NC(=O)C1CC1CCCCC1` (centres unmarked) [Compound 6b, DKP Phe(p-NH—CH2—CO—NH-dopamine)-N-MeCha]: in data set [1] (dopamine constructs), the “Log Pe” value is −7.6 and the “Effective permeability Pe” value is on record as 2.28 10^−8 cm/s. Further, the “Capacity factor kIAM” value in data set [2] (dopamine constructs) is on record as 0.86.

Take `CN1C(=O)C(Cc2ccc(NC(=O)C3OC(Oc4cc5oc(-c6ccccc6)cc(=O)c5c(O)c4O)C(O)C(O)C3O)cc2)NC(=O)C1Cc1ccc2ccc3cccc4ccc1c2c34` (centres unmarked) [Compound 5d, DKP Phe(p-NH—CO-baicalin)-N-Me1PyrenylAla]: in data set [1] (baicalin constructs), the “Log Pe” value is on record as −8.7 and the “Effective permeability Pe” value is 0.19 10^−8 cm/s. Further, in data set [2] (baicalin constructs), the “Capacity factor kIAM” value is recorded as over 100.

With `CCCCCCC1C(=O)NC(Cc2ccc(NC(=O)C3OC(Oc4cc5oc(-c6ccccc6)cc(=O)c5c(O)c4O)C(O)C(O)C3O)cc2)C(=O)N1C` (centres unmarked) [Compound 5f, DKP Phe(p-NH—CO-baicalin)-N-MeOct], in data set [1] (baicalin constructs), the “Log Pe” value was −6.3 and the “Effective permeability Pe” value is recorded as 4.97 10^−7 cm/s. For the same compound, the “Capacity factor kIAM” value in data set [2] (baicalin constructs) turned out to be 10.47.

`CN1C(=O)C(Cc2ccc(NCC(=O)NCCc3ccc(O)c(O)c3)cc2)NC(=O)C1Cc1ccc2ccc3cccc4ccc1c2c34` (centres unmarked) [Compound 6d, DKP Phe(p-NH—CH2—CO—NH-dopamine)-N-Me(1PyrenylAla)]: in data set [1] (dopamine constructs), the “Log Pe” value is on record as −7.7 and the “Effective permeability Pe” value is reported as 1.90 10^−8 cm/s. For the same compound, in data set [2] (dopamine constructs), the “Capacity factor kIAM” value is on record as over 100.

As for `CCCCCCC1C(=O)NC(Cc2ccc(NCC(=O)NCCc3ccc(O)c(O)c3)cc2)C(=O)N1C` (centres unmarked) [Compound 6f, DKP Phe(p-NH—CH2—CO—NH-dopamine)-N-MeOct], in data set [1] (dopamine constructs), the “Log Pe” value is −6.5 and the “Effective permeability Pe” value is 32.1 10^−8 cm/s. Besides, the “Capacity factor kIAM” value in data set [2] (dopamine constructs) worked out at 15.47.

As to `CN1C(=O)C(Cc2ccc(NC(=O)C3OC(Oc4cc5oc(-c6ccccc6)cc(=O)c5c(O)c4O)C(O)C(O)C3O)cc2)NC(=O)C1Cc1ccccc1` (centres unmarked) [Compound 5a, DKP Phe(p-NH—CO-baicalin)-N-MePhe], in data set [1] (baicalin constructs), the “Log Pe” value is −7.7 and the “Effective permeability Pe” value was 1.33 10^−8 cm/s. Also, the “Capacity factor kIAM” value in data set [2] (baicalin constructs) is listed as 2.42.

Take `CN1C(=O)C(Cc2ccc(NC(=O)C3OC(Oc4cc5oc(-c6ccccc6)cc(=O)c5c(O)c4O)C(O)C(O)C3O)cc2)NC(=O)C1CCc1ccccc1` (centres unmarked) [Compound 5e, DKP Phe(p-NH—CO-baicalin)-N-MeHomoPhe]: in data set [1] (baicalin constructs), the “Log Pe” value is −9.3 and the “Effective permeability Pe” value is 0.05 10^−8 cm/s. Besides, in data set [2] (baicalin constructs), the “Capacity factor kIAM” value is 4.15.

Turning to `CN1C(=O)C(Cc2ccc(NCC(=O)NCCc3ccc(O)c(O)c3)cc2)NC(=O)C1Cc1ccccc1` (centres unmarked) [Compound 6a, DKP Phe(p-NH—CH2—CO—NH-dopamine)-N-MePhe], in data set [1] (dopamine constructs), the “Log Pe” value is −7.4 and the “Effective permeability Pe” value is given as 3.61 10^−8 cm/s. Besides, in data set [2] (dopamine constructs), the “Capacity factor kIAM” value is 3.54.

With `NCCc1ccc(O)c(O)c1` [Dopamine, dopamine, reference compound], the “Capacity factor kIAM” value in data set [2] (dopamine constructs) stood at 0.30.

Take `O=C(O)[C@H]1O[C@@H](Oc2cc3oc(-c4ccccc4)cc(=O)c3c(O)c2O)[C@H](O)[C@@H](O)[C@@H]1O` [Baicalin, baicalin, reference compound]: in data set [2] (baicalin constructs), the “Capacity factor kIAM” value worked out at 1.24.

As for `CN1C(=O)C(Cc2ccc(NC(=O)C3OC(Oc4cc5oc(-c6ccccc6)cc(=O)c5c(O)c4O)C(O)C(O)C3O)cc2)NC(=O)C1Cc1ccc2ccccc2c1` (centres unmarked) [Compound 5c, DKP Phe(p-NH—CO-baicalin)-N-Me2Nal], in data set [1] (baicalin constructs), the “Log Pe” value is −5.4 and the “Effective permeability Pe” value was 3.70 10^−6 cm/s. Further, the “Capacity factor kIAM” value in data set [2] (baicalin constructs) is 10.66.

As to `CN1C(=O)C(Cc2ccc(NCC(=O)NCCc3ccc(O)c(O)c3)cc2)NC(=O)C1Cc1ccc2ccccc2c1` (centres unmarked) [Compound 6c, DKP Phe(p-NH—CH2—CO—NH-dopamine)-N-Me2Nal], in data set [1] (dopamine constructs), the “Log Pe” value is given as −6.9 and the “Effective permeability Pe” value is 11.5 10^−8 cm/s. The “Capacity factor kIAM” value in data set [2] (dopamine constructs) was 16.14.

Take `CN1C(=O)C(Cc2ccc(NC(=O)C3OC(Oc4cc5oc(-c6ccccc6)cc(=O)c5c(O)c4O)C(O)C(O)C3O)cc2)NC(=O)C1CC1CCCCC1` (centres unmarked) [Compound 5b, DKP Phe(p-NH—CO-baicalin)-N-MeCha]: in data set [1] (baicalin constructs), the “Log Pe” value was −6.4 and the “Effective permeability Pe” value was 3.65 10^−7 cm/s. In addition, the “Capacity factor kIAM” value in data set [2] (baicalin constructs) is on record as 6.09.

As for `CN1C(=O)C(Cc2ccc(NCC(=O)NCCc3ccc(O)c(O)c3)cc2)NC(=O)C1CCc1ccccc1` (centres unmarked) [Compound 6e, DKP Phe(p-NH—CH2—CO—NH-dopamine)-N-MeHomoPhe], in data set [1] (dopamine constructs), the “Log Pe” value is given as −8.1 and the “Effective permeability Pe” value is recorded as 0.76 10^−8 cm/s. Besides, in data set [2] (dopamine constructs), the “Capacity factor kIAM” value turned out to be 3.15.
